Measured values taken from US10435388B2, “Selective inhibitors of clinically important mutants of the EGFR tyrosine kinase” (CS PHARMATECH LIMITED, priority 2016, dated 2019).
Values joined by “and” are separate entries in the source; they are usually repeats but may differ in a detail not shown here. Equal entries are not always repeated.

Columns and labels:
EGFR_d746-750 = EGFR_d746-750 (Homo sapiens, UniProt P00533, DEL746-750); assay: Enzyme assay, IC50 for single mutant EGFR_d746-750 (Caliper); assay type: biochemical; conditions: enzyme phosphorylation assay
Chain of EGFR_d746-750 (P00533 with tags, fused parts or gaps DEL746-750): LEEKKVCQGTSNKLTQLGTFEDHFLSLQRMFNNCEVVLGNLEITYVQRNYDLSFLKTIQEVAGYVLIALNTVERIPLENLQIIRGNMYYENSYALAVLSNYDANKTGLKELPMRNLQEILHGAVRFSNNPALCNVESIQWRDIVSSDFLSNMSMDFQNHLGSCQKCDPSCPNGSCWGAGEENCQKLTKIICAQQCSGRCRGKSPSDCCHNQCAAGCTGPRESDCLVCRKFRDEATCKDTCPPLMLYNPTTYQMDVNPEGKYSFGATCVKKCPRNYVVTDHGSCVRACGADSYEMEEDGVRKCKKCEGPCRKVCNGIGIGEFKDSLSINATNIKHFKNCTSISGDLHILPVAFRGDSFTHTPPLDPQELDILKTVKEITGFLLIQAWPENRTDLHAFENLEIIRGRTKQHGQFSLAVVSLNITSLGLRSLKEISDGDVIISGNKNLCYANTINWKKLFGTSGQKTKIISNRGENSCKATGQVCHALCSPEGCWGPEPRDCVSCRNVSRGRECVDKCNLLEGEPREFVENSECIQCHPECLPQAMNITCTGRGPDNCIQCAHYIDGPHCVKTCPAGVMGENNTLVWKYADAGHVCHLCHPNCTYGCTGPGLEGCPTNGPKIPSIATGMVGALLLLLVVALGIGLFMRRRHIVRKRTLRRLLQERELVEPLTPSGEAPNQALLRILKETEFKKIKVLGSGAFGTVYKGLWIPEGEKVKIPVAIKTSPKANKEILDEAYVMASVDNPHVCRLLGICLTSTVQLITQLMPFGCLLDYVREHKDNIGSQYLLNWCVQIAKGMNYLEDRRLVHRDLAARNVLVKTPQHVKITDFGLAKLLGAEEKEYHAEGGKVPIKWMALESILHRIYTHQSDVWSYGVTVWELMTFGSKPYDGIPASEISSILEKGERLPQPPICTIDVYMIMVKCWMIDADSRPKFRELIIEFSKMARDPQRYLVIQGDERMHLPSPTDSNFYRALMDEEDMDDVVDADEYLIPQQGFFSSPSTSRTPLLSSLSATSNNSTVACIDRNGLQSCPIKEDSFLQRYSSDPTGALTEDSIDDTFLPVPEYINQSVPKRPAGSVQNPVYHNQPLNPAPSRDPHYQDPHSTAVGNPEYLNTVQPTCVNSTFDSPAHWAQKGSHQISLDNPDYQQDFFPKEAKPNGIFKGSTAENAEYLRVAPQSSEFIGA

[1] = test system: p-EGFR in H1975 cells (L858R/T790M double mutant EGFR); conditions: read-out: H1975 IC50; cellular EGFR autophosphorylation, 2 h treatment, ELISA
Protocol: Cellular EGFR Autophosphorylation Assays.
H1975 cells were cryopreserved in liquid nitrogen. […] Remove the vial from liquid nitrogen and thaw rapidly by placing at 37° C. in a water bath with gentle agitation for 1-2 minutes and then decontaminated by wiping with 70% ethanol before opening in a Class II biological safety cabinet. Transfer the vial contents drop-wise into 10 mL of cell culture medium in a sterile 15 mL conical tube. Then centrifuged the tube at 200× g for 5 minutes and aspirate the supernatant. Re-suspend the cell pellet with 1 mL of fresh cell culture medium and transfer it in to the T75 flask containing cell culture medium.
To passage H1975 cells, firstly, the adherent cells were rinsed with Trypsin/EDTA. Then add Trypsin/EDTA (3 mL for a T75 flask) into the flask and swirl to ensure the cells coated with trypsin evenly. Then incubate the flasks at 37° C. until the cells detach. Add equal volume of cell culture medium to stop the reaction. Collect the detached cells and centrifuged at 200× g for 5 minutes followed by re-suspended in fresh culture medium. Then, the cells were transferred into a new T75 flask containing cell culture medium. Cells were sub-cultured three times per week at a ratio of 1:4 in culture medium.
Harvest cells from flask into cell culture medium and the cell numbers counted using Automated Cell Counter (Thermo Fisher Scientific, Countess™). Dilute the cells into 250,000 cells/mL with culture medium and add 40 μL of cell suspension into each well of 384-well cell culture plate as designated. The final concentration was 10,000 cells/well. The plates were covered with lid and placed in 37° C. 5% CO2 incubator overnight for cell attachment.
On the second day, test compounds were dissolved in DMSO at 10 mM. […] The same volume of DMSO was adopted as high control.
Place the plate back to 37° C. 5% CO2 incubator for 2 hours. Replace the medium of each well with ice-cold HBSS. Then remove the HBSS, add 30 μL cell lysis buffer into each well and shake the plates for 30 mins on a plate shaker. Centrifuge for 5 min at 1,000 rpm to remove bubbles and transfer 25 uL of the lysate supernatant for p-EGFR assay by using a commercial ELISA kit (R&D, DYC1095B-5).
For estimation of IC50, the absorption readout are transformed to % relative activity by applying the following equation
[formula] The IC50 was then calculated by fitting in XLFit (IDBS, Guildford, Surrey) to a four parameters logistic curve.

[2] = test system: p-EGFR in PC9 cells (Exon 19 deletion EGFR); assay: Exon19 deletion EGFR (activating single mutant) PC-9 cellular autophosphorylation assay; assay type: cell-based, human; conditions: 2 h treatment, ELISA

IC50 (EGFR_d746-750): 1.1 nM
IC50 [1]: 1.84 nM and 3.58 nM
IC50 [2]: 2.91 nM and 2.4 nM
SMILES: C=CC(=O)Nc1cc(Nc2nccc(-c3c[nH]c4ccccc34)n2)c(OC)cc1N(C)CCN(C)C [AZD-5104]
